Test results: the METLIN SMRT retention time set (Domingo-Almenara et al. 2019)

Test: gradient 5% acetonitrile 3 min, to 50% in 2 min, to 85% in 15 min, held 3 min, 100 µL/min
Conditions: column: Zorbax Extend-C18 2.1 x 50 mm; eluents: water / acetonitrile, 0.1% formic acid
Method in brief: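 Over 3 months, pure standards in mixtures of ~100 molecules were run by HPLC coupled to a quadrupole time-of-flight mass spectrometer in positive and negative ionization mode. The column was a Zorbax Extend-C18 (2.1 × 50 mm, 1.8 μm) at 100 μL/min, eluted with water and acetonitrile each holding 0.1% formic acid, with 40 μL dead and 900 μL dwell volumes. Retention time was determined from adduct peaks chosen by software and checked manually.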

Structure (SMILES)	RP-LC retention time
CCC(C(=O)NCCN1CCOCC1)n1c2ccccc2c2cnn(C)c(=O)c21 (centres undefined)	617 s
O=C(NCCc1csc(C2CCCN(C(=O)C3(c4ccccc4)CC3)C2)n1)C1CC1 (centres undefined)	762 s
COc1ccc(C2CC(=O)N(c3ccc(F)c(Cl)c3)C(=O)C2)cc1	980 s
COc1cc(NC(=O)N2CCCN(c3ccc(=O)n(-c4ccccc4)n3)CC2)cc(OC)c1OC	694 s
O=C(Cc1csc2nc(-c3ccccc3)cn12)Nc1ccc(Cl)cc1F	881 s
Cc1cc(Cl)ccc1N1C(=O)CN(S(C)(=O)=O)CC1(C)C(=O)NCc1ccccc1 (centres undefined)	863 s
COc1cc(-n2c(=O)c3ccccc3n(Cc3ccccc3F)c2=O)cc(OC)c1OC	850 s
COC(=O)c1[nH]c(C)c(CN(C(=O)C2CCCCC2)C2CCCC2)c1C	1060 s
O=C(NC1CCN(Cc2ccccc2)CC1)c1ccc(I)cc1	727 s
Cc1cc2[nH]c(C(=O)Nc3ccc(F)c(F)c3)c(CN3CCOCC3)c2s1	740 s
COc1ccc(C2CC(=O)c3cnc(Nc4nc(C)c5cc(C)c(C)cc5n4)nc3C2)cc1 (centres undefined)	775 s
CCOC(=O)c1nc(N2CCN(c3ccc(C)cc3C)CC2)c2ccccc2n1	1110 s
CNC(=O)C1CCCN(c2nc3ncn(CC(=O)Nc4ccc(C)cc4C)c(=O)c3s2)C1 (centres undefined)	646 s
Cc1nc(C(=O)Nc2ccc(N3CCOCC3)cc2)c(C)n1C1CCN(C)CC1	555 s
CC(C)Cn1c(=O)c(N2CCN(C(=O)NCc3ccc(F)cc3)CC2)nc2ccncc21	668 s
COc1ccc(-c2nn(-c3ccccc3)cc2C(=O)O)cc1N	661 s
O=C(C1=NN(Cc2ccccc2)c2ccccc2S1(=O)=O)N1CCCCCC1	974 s
CCc1noc(NC(C)=O)c1-c1ccc(OC)c(S(=O)(=O)Nc2cccc(Cl)c2)c1	831 s
O=C(Cc1ccccc1F)N1CCC(c2nc(-c3ccccc3)no2)C1 (centres undefined)	922 s
CC(=O)Nc1ccc(S(=O)(=O)N2CCCC2c2nc(-c3ccc(F)cc3)no2)cc1Cl (centres undefined)	990 s
Cc1onc(-c2ccccc2Cl)c1C(=O)Nc1cc(C(=O)N2CCCC2)cn(C)c1=O	699 s
CCC(c1cccs1)N1C(=O)[C@H]2CN(S(=O)(=O)c3ccccc3F)C[C@H]2C1=O (some centres undefined)	972 s
Cc1cccc(-c2nnc(CC(=O)NC3CCCC3)o2)c1	658 s

Structure (SMILES)	RP-LC retention time
CC1Cc2ccccc2N1C(=O)Cn1c(=O)n(C(C)C)c2ccc(S(=O)(=O)N3CCCC3)cc21 (centres undefined)	963 s
Cc1cc(C(F)F)n2nc(C(=O)Nc3ccc(C)c(C)c3)nc2n1	860 s
O=C(NCc1ccncc1)C1CCN(C(=O)c2ncn3c2COC(c2ccc(Cl)cc2)C3)CC1 (centres undefined)	645 s
O=C(NCc1ccc(F)cc1F)c1cnn2c(-c3ccc4c(c3)OCO4)ccnc12	1000 s
CCn1cnc2c1CN(S(=O)(=O)c1cccc(C#N)c1)CC2	590 s
Cc1sc2ccn(C)c(=O)c2c1C(=O)NC1CCCCC1	716 s
Cc1ccc(Nc2c(-c3ccc(N4CCOCC4)cc3)nc3ncccn23)cc1C	716 s
Cc1ccc2c(Nc3ccc(C)c(C)c3)c(C(=O)N3CCSCC3)cnc2n1	644 s
COc1ccc(OC)c(CNC(=O)c2cc3c(=O)n(C)ccc3n2C)c1	692 s
Cc1ccc(-n2cc(C3=CCN(CC(=O)N4CCN(c5ccccn5)CC4)CC3)cn2)cc1C	596 s
COc1ccccc1NC(=O)c1cc2ccccc2cc1O	1060 s
COCC(=O)NC1CCC12CCN(C(=O)CC1CCCCC1)CC2 (centres undefined)	778 s
Cc1ccc(NC(=O)Cn2c(N3CCCC3)nc(C)cc2=O)c(C)c1	669 s
O=S(=O)(Cc1ccccc1F)N1CCCC(c2nn[nH]n2)C1 (centres undefined)	706 s
Cc1cc(=O)n(CC(=O)Nc2cccc(C)c2C)c(N(C)Cc2ccccc2)n1	794 s
Cc1n[nH]c(C)c1Sc1ccccc1[N+](=O)[O-]	739 s
CCNc1cc(N2CCCC(CCC(=O)Nc3ccc(OC)cc3)C2)ncn1 (centres undefined)	659 s
CCC(=O)N1CCc2ccccc2C1C(=O)NCc1cccc(Br)c1 (centres undefined)	828 s
O=C(c1ccc(Cl)cc1)N1CCc2sc(C(=O)N3CCCC3)cc2C1	792 s
CNC(=O)NCC(c1ccc(F)cc1)c1c[nH]c2ccccc12 (centres undefined)	782 s
Cc1noc(-c2nn(C)c3c2CN(C(=O)Nc2ccc(C(F)(F)F)cc2)CC3)n1	847 s
COc1ccc(Cl)cc1NC(=O)CSc1nnc(-c2ccco2)n1-n1cccc1	885 s
Cc1ccccc1NC(=O)c1c(NC(=O)CCC(=O)O)sc2c1CCCC2	939 s

Structure (SMILES)	RP-LC retention time
CCC(=O)Nc1cc2c(cc1S(=O)(=O)c1ccccc1)n(CC)c(=O)n2CC	786 s
Cc1sc(C)c(S(=O)(=O)Nc2ccccc2Cl)c1-c1cc(C(F)(F)F)on1	1140 s
Cc1ccc(OCC(=O)Nc2cc3c(cc2N(C)C)n(C)c(=O)c(=O)n3C)c(C)c1	962 s
CCNC(=O)N1CCCCCC1CN1CCCC1 (centres undefined)	564 s
Cc1ccc(-c2noc(CN3N=NC4C(=O)N(c5ccc(Br)cc5)C(=O)C43)n2)cc1C (centres undefined)	1130 s
Cn1nc2n(c1=O)CCN(Cc1cn[nH]c1-c1ccc(F)cc1)C2	600 s
Cc1noc([C@@H]2CN(C(=O)CC3CCCC3)C[C@H]2CO)n1	672 s
COc1ccc2[nH]c(=O)c(CCC(=O)NCCN3CCCCCC3)cc2c1	600 s
Cc1ccc(CNC(=O)C2(C)CN(S(C)(=O)=O)CC(=O)N2CCCc2ccccc2)cc1 (centres undefined)	927 s
CCn1cc(C(=O)NCc2ccc(F)cc2)c2cccnc21	771 s
CC(=O)Oc1cc(-c2cccc(C(F)(F)F)c2)c2oc(=O)sc2c1	1030 s
O=C(NCc1cccc(F)c1)c1cn2ccncc2n1	672 s
Cc1cc(C(=O)OCc2cc(-c3ccc4c(c3)OCCO4)on2)c(C)o1	1070 s
O=C(NCCCN1CCCC1)C1CCCN(c2nccnc2Sc2ccccc2)C1 (centres undefined)	659 s
Cc1nccn1-c1ccc(=O)n(CCNC(=O)Cn2nc(-c3ccc(F)cc3)ccc2=O)n1	780 s
Cn1cc(CN2CCC(C(=O)NCC3CCN(Cc4cccc(F)c4)CC3)CC2)c2ccccc21	572 s
Cc1ccccc1Nc1c(-c2ccccc2F)nc2ccccn12	707 s
Cc1nn2c(ncc3c(=O)n(-c4nccs4)ccc32)c1-c1ccccc1	1170 s
Cc1ccc(Cl)cc1NC(=O)Nc1cccc(-c2ccc(N3CCOCC3)nn2)c1	753 s
Cn1cc2c(N3CCCC3)nc(C(=O)NCc3ccccc3C(F)(F)F)nc2n1	646 s
COc1ccc(-n2ccc(=O)c(-c3nc(-c4ccccc4Br)no3)n2)cc1	908 s
Cc1csc(-c2cc(S(=O)(=O)NC3CCCCC3)cn2CC(=O)N2CCCC2)n1	927 s
COC1CN(c2cccc(F)c2)C12CCN(Cc1ccccn1)CC2 (centres undefined)	699 s

Structure (SMILES)	RP-LC retention time
COc1ccc(-c2cc(=O)n(CC(=O)Nc3cccc4nsnc34)cn2)cc1	748 s
CC1CCN(C(=O)C(=O)NCc2n[nH]c(=O)c3ccccc23)CC1	639 s
Cc1ccc(C)c(N(C)C(=O)C2CCCN(c3ncnc4c3nc3n4CCCCC3)C2)c1 (centres undefined)	899 s
CCCn1cnc2ccc(-c3noc(C(C)NC(=O)c4ccco4)n3)cc21 (centres undefined)	584 s
Cc1ccc(CNC(=O)CCn2nc(C)c3c(C)n(-c4ccccc4)nc3c2=O)o1	734 s
O=C(NCC1CC1)C1CCN(c2ncnc3c2oc2ccccc23)CC1	678 s
CCCCN(C)c1ccc(NC(=O)CC(C)C)c(C(=O)O)c1	729 s
CCN1C(=O)CCc2cc(NC(=O)Cc3c(F)cccc3Cl)ccc21	792 s
CCCCN(C)C(=O)Cn1c(C(C)NC(=O)c2ccco2)nc2ccccc21 (centres undefined)	655 s
O=C(Nc1ccc2nc(N3CCN(C4CCCCC4)CC3)cc(C(=O)O)c2c1)c1ccc(F)cc1	625 s
COC(=O)c1ccc2c(=O)n(-c3ccc(Cl)cc3)c(N3CCN(c4ccccn4)CC3)nc2c1	753 s
CCCOc1ccc(CNC(=O)c2nc(N3CCSCC3)c3cn(C)nc3n2)cc1	798 s
CNc1nc(Nc2ccc(F)cc2C)nc2ccccc12	678 s
CCc1noc(-c2ccc(-n3cnc(C(=O)NC(C)c4ccc(F)cc4)c3)nc2)n1 (centres undefined)	1000 s
CCc1ccc(NC(=O)N(CC)c2nc(-c3ccc(C4CCCCC4)cc3)cs2)cc1	641 s
O=C(Nc1cccc(Cl)c1)N1CCc2[nH]cnc2C1c1ccncc1 (centres undefined)	572 s
O=C(CN1CCN(S(=O)(=O)c2ccccc2)CC1)Nc1ccc(Br)cc1	722 s
COc1ccccc1CNC(=O)C1CCCN(C(=O)c2cc3sccc3n2C)C1 (centres undefined)	852 s
COc1ccc(NC(=O)CCNc2cnc3cnccn23)cc1F	589 s
O=C(Nc1ccc2c(c1)OCO2)N(Cc1ccsc1)CC(F)(F)F	858 s
